Measured values taken from US6699834B1, “Method for treating cancer” (University of Maryland Biotechnology Institute, priority 1997, dated 2004).
Bridge positions count the residues as written; N and C are the ends. Ends that are not written are not given here.

Key:
[1] = test system: HIV-1
[2] = test system: KS Y-1 and KS-SLK cells; assay: Kaposi's Sarcoma clonogenic assay in cultured cells; format: cell-based, human; details: for inhibition of KS cell growth in clonogenic assays (in words): KS Y-1 and KS SLK
Procedure, shortened: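 KS Y-1 or KS-SLK cells, 5×10^4 seeded in 0.8% methylcellulose, grown 10 days with or without hCG, β-hCG or β-hCG peptide preparations; well-formed colonies counted in triplicate wells.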

[3] = test system: hematopoietic progenitor cells; assay: Hematopoietic progenitor clonogenic assays (CFU-GEMM, BFU-e, CFU-GM); format: cell-based, human
Procedure, shortened: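 Normal bone marrow and cord blood progenitors (2×10^5 cells/ml) grown in methylcellulose with hCG preparations at 200 IU/ml or α/β-subunits and peptides at 100 μg/ml. Colonies (aggregates >50 cells) counted after 10 days of culture.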

[4] = test system: breast cancer cells; assay: Clonogenic assay, breast cancer cells; format: cell-based; details: 100 ug/ml
Procedure: (§1) The hCG preparations, fractions of the early pregnancy urine and hCG APL™ SUPERDEX™ 200 fractionations (described herein), and certain β-hCG peptides were tested on prostate, lung, breast, and kidney cancer cells in vitro, and on prostate tumors in nude mice. […] The preparations fractions and peptides were also assayed using a clonogenic assay in which cells were seeded in methylcellulose in the presence or absence of test substance and then colonies were counted after a certain period of time. Cells were also examined for apoptosis by confocal microscopy.
The hCG preparation, hCG fractions and β-hCG peptides were also tested for the inhibition of breast cancer cell colony formation in the clonogenic assay.

[5] = test system: prostate cancer cells; assay: Apoptosis by confocal microscopy, prostate cancer cells; format: cell-based; details: 48 hours
Procedure: The preparations fractions and peptides were also assayed using a clonogenic assay in which cells were seeded in methylcellulose in the presence or absence of test substance and then colonies were counted after a certain period of time. Cells were also examined for apoptosis by confocal microscopy. FIGS. 18A-H show confocal micrographs of prostate cancer cells treated with an hCG or hCG related preparation and then stained with FITC-labelled actin monoclonal antibody to visualize the cytoskeleton and propidium iodine to visualize the cell nucleus. Condensation of the nucleus and damage to the cytoskeleton are indications of apoptosis.

[6] = test system: lung cancer cells; assay: Clonogenic assay, lung cancer cells; format: cell-based; details: compared to PBS alone
Procedure: as §1

[7] = listed as cyclized β-hCG peptide of amino acids 44-57

## 4. Circ 44-57: β-hCG 44-57 with cysteine substituted at position 44, circularized via disulfide bond (SEQ ID NO:26) (CLQGVLPALPQVVC; disulfide 1-14 (inferred))
[1]
  inhibition of HIV-1 infection/replication in vitro (in words): inhibit HIV-1 replication in vitro
[1]; inhibition of HIV-1 replication in vitro (HIV-1 strains and HIV-1 primary isolates)
  HIV in vitro Inhibition: +++ (“+++” represents greater than 70% effect)
[2]; listed as cyclic 44-57
  inhibition of KS cell growth in clonogenic assays (in words): strongest anti-tumor effects
[2]; [7]
  inhibition of KS cell growth in clonogenic assays (in words): inhibited KS cell growth
[2]; inhibition of Kaposi's Sarcoma cell growth in vitro in cultured cells
  KS in vitro: +++ (“+++” represents greater than 70% effect)
[3]; listed as circularized 44-57
  promotion of hematopoiesis (in words): directly promoted
[3]; [7]
  promotion of hematopoiesis (in words): pro-hematopoietic activity
[3]; relative increase of hematopoietic colony cell number, hCG preparations 200 IU/ml, subunits and peptides 100 μg/ml
  Pro-hematopoiesis in vitro Enhancement: +++ (“+++” represents greater than 70% effect)
[4]
  % inhibition (colony formation): 45%
[5]
  apoptosis: increased apoptosis
[6]
  colony formation: inhibited colony formation
